Experimental data published in ChEMBL document CHEMBL1221330, “N-tetrahydrothiochromenoisoxazole-1-carboxamides as selective antagonists of cloned human 5-HT2B” (Bioorg Med Chem Lett, 2010).

Columns and labels:
[1] = target: T1, 5-hydroxytryptamine receptor 2B (Homo sapiens, UniProt P41595); assay: Displacement of [3H]LSD from human 5HT2B receptor at 10 uM
[2] = target: T2, 5-hydroxytryptamine receptor 2C (Homo sapiens) (UniProt P28335); assay: Displacement of [3H]Mesulergine from human 5HT2C receptor at 10 uM
T2 sequence (whole entry): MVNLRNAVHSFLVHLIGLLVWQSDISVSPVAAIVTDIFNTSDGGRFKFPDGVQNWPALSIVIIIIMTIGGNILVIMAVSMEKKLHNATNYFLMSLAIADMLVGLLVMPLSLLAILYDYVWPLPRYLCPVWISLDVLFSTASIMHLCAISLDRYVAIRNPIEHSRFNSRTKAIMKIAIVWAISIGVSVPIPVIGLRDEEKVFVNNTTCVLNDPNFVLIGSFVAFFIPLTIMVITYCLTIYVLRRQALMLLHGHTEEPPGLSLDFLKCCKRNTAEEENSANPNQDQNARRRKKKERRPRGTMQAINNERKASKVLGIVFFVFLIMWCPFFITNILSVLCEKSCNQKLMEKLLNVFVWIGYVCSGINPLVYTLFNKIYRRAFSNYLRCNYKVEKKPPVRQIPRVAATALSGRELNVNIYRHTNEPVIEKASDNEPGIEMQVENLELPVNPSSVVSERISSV

[3] = target: T3, 5-hydroxytryptamine receptor 2A (Homo sapiens, UniProt P28223); assay: Displacement of [3H]Ketanserin from human 5HT2A receptor
[4] = target: T1, 5-hydroxytryptamine receptor 2B; assay: Displacement of [3H]LSD from human 5HT2B receptor
[5] = target: T4, 5-hydroxytryptamine receptor 2C (Homo sapiens, UniProt P28335); assay: Displacement of [3H]Mesulergine from human 5HT2C receptor
T4 sequence (P28335 whole entry): T2 sequence (whole entry)

[6] = target: T3, 5-hydroxytryptamine receptor 2A; assay: Displacement of [3H]Ketanserin from human 5HT2A receptor at 10 uM
[7] = target: 5-hydroxytryptamine receptor 1A (Homo sapiens) (UniProt P08908); assay: Displacement of [3H]8-OH-DPAT from human 5HT1A receptor at 10 uM
[8] = target: 5-hydroxytryptamine receptor 1B (Homo sapiens) (UniProt P28222); assay: Displacement of [3H][…] from human 5HT1B receptor at 10 uM
[9] = target: 5-hydroxytryptamine receptor 1D (Homo sapiens) (UniProt P28221); assay: Displacement of [3H][…] from human 5HT1D receptor at 10 uM
[10] = target: 5-hydroxytryptamine receptor 1E (Homo sapiens) (UniProt P28566); assay: Displacement of [3H]5-HT from human 5HT1E receptor at 10 uM
[11] = target: 5-hydroxytryptamine receptor 3A (Homo sapiens) (UniProt P46098); assay: Displacement of [3H]LY278584 from human 5HT3 receptor at 10 uM
[12] = target: 5-hydroxytryptamine receptor 5A (Homo sapiens) (UniProt P47898); assay: Displacement of [3H]LSD from human 5HT5A receptor at 10 uM
[13] = target: 5-hydroxytryptamine receptor 7 (Homo sapiens) (UniProt P34969); assay: Displacement of [3H]LSD from human 5HT7 receptor at 10 uM
[14] = target: Alpha-1A adrenergic receptor (Homo sapiens) (UniProt P35348); assay: Displacement of [3H]Prazosin from human adrenergic alpha1A receptor at 10 uM
[15] = target: Beta-1 adrenergic receptor (Homo sapiens) (UniProt P08588); assay: Displacement of [125I]Iodopindolol from human adrenergic beta-1 receptor at 10 uM
[16] = target: Beta-2 adrenergic receptor (Homo sapiens) (UniProt P07550); assay: Displacement of [125I]Iodopindolol from human adrenergic beta2 receptor at 10 uM
[17] = target: Beta-3 adrenergic receptor (Homo sapiens) (UniProt P13945); assay: Displacement of [125I]Iodopindolol from human adrenergic beta3 receptor at 10 uM
[18] = target: D(1A) dopamine receptor (Homo sapiens) (UniProt P21728); assay: Displacement of [3H][…] from human dopamine D1 receptor at 10 uM
[19] = target: D(2) dopamine receptor (Homo sapiens) (UniProt P14416); assay: Displacement of [3H]N-methylspiperone from human dopamine D2 receptor at 10 uM
[20] = target: D(3) dopamine receptor (Homo sapiens) (UniProt P35462); assay: Displacement of [3H]N-methylspiperone from human dopamine D3 receptor at 10 uM
[21] = target: D(4) dopamine receptor (Homo sapiens) (UniProt P21917); assay: Displacement of [3H]N-methylspiperone from human dopamine D4 receptor at 10 uM
[22] = target: T5, Sodium-dependent dopamine transporter (Homo sapiens, UniProt Q01959); assay: Displacement of [3H][…] from human DAT at 10 uM
[23] = target: Delta-type opioid receptor (Homo sapiens) (UniProt P41143); assay: Displacement of [3H]DADLE from human delta opioid receptor at 10 uM
[24] = target: Histamine H1 receptor (Homo sapiens) (UniProt P35367); assay: Displacement of [3H]Pyrilamine from human histamine H1 receptor at 10 uM
[25] = target: Histamine H2 receptor (Homo sapiens) (UniProt P25021); assay: Displacement of [3H]Tiotidine from human histamine H2 receptor at 10 uM
[26] = target: Histamine H3 receptor (Homo sapiens) (UniProt Q9Y5N1); assay: Displacement of [3H]alpha-methylhistamine from human histamine H3 receptor at 10 uM
[27] = target: Histamine H4 receptor (Homo sapiens) (UniProt Q9H3N8); assay: Displacement of [3H]Histamine from human histamine H4 receptor at 10 uM
[28] = target: Kappa-type opioid receptor (Homo sapiens) (UniProt P41145); assay: Displacement of [3H]U69593 from human kappa opioid receptor at 10 uM
[29] = target: Muscarinic acetylcholine receptor M1 (Homo sapiens) (UniProt P11229); assay: Displacement of [3H]QNB from human muscarinic M1 receptor at 10 uM
[30] = target: Muscarinic acetylcholine receptor M2 (Homo sapiens) (UniProt P08172); assay: Displacement of [3H]QNB from human muscarinic M2 receptor at 10 uM
[31] = target: Muscarinic acetylcholine receptor M3 (Homo sapiens) (UniProt P20309); assay: Displacement of [3H]QNB from human muscarinic M3 receptor at 10 uM
[32] = target: Muscarinic acetylcholine receptor M4 (Homo sapiens) (UniProt P08173); assay: Displacement of [3H]QNB from human muscarinic M4 receptor at 10 uM
[33] = target: Muscarinic acetylcholine receptor M5 (Homo sapiens) (UniProt P08912); assay: Displacement of [3H]QNB from human muscarinic M5 receptor at 10 uM
[34] = target: T6, Sodium-dependent noradrenaline transporter (Homo sapiens, UniProt P23975); assay: Displacement of [3H]Nisoxetine from human NET at 10 uM
[35] = target: T7, Sodium-dependent serotonin transporter (Homo sapiens, UniProt P31645); assay: Displacement of [3H]Citalopram from human SERT at 10 uM
[36] = target: Sigma non-opioid intracellular receptor 1 (Homo sapiens) (UniProt Q99720); assay: Displacement of [3H]Pentazocine from human sigma 1 receptor at 10 uM
Homo sapiens = organism: Homo sapiens; assay: Displacement of [3H]DTG from human sigma 2 receptor at 10 uM
[37] = target: T5, Sodium-dependent dopamine transporter; assay: Displacement of [3H][…] from human DAT
[38] = target: T6, Sodium-dependent noradrenaline transporter; assay: Displacement of [3H]Nisoxetine from human NET
[39] = target: T7, Sodium-dependent serotonin transporter; assay: Displacement of [3H]Citalopram from human SERT
[40] = target: T1, 5-hydroxytryptamine receptor 2B; assay: Agonist activity at human 5HT2B receptor assessed as 5HT-induced calcium mobilization at 10 uM by FLIPR assay relative to 5HT; type: functional
[41] = target: T1, 5-hydroxytryptamine receptor 2B; assay: Antagonist activity at human 5HT2B receptor assessed as inhibition of 10633-induced calcium mobilization by FLIPR assay; type: functional
[42] = target: T1, 5-hydroxytryptamine receptor 2B; assay: Agonist activity at human 5HT2B receptor assessed as 10633-induced calcium mobilization by FLIPR assay; type: functional
[43] = target: T4, 5-hydroxytryptamine receptor 2C; assay: Agonist activity at human 5HT2C receptor assessed as 5HT-induced calcium mobilization by FLIPR assay; type: functional
[44] = target: T4, 5-hydroxytryptamine receptor 2C; assay: Agonist activity at human 5HT2C receptor assessed as 10633-induced calcium mobilization by FLIPR assay; type: functional
[45] = target: T1, 5-hydroxytryptamine receptor 2B; assay: Agonist activity at human 5HT2B receptor assessed as 5HT-induced calcium mobilization by FLIPR assay; type: functional
[46] = target: Mu-type opioid receptor (Homo sapiens) (UniProt P35372); assay: Displacement of [3H]DAMGO from human mu opioid receptor at 10 uM

T1 sequence (P41595 whole entry): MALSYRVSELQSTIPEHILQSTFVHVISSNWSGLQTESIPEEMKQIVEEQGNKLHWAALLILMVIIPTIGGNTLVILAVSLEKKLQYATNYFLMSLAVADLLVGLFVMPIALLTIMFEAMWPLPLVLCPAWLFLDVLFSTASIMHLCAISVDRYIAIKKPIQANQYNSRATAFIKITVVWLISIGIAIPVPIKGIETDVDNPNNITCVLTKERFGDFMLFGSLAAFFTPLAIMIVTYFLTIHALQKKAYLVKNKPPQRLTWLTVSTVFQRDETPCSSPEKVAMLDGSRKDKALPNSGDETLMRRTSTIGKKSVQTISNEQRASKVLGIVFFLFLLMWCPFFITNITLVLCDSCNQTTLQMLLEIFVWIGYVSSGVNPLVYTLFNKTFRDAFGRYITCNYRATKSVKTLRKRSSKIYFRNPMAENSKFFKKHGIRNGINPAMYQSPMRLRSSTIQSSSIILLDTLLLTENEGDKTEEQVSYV
T3 sequence (P28223 whole entry): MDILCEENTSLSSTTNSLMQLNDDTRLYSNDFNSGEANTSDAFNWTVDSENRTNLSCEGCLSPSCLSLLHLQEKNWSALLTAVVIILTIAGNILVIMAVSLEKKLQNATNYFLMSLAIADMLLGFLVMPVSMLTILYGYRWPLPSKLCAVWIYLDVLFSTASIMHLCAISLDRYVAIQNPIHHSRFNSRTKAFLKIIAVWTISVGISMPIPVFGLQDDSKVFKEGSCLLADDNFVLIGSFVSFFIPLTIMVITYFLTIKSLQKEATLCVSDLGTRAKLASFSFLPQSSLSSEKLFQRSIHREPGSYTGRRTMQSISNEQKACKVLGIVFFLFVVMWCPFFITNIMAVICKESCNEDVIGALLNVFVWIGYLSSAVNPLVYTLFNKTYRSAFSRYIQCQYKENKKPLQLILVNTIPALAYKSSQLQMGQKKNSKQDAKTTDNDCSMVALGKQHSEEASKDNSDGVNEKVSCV
T6 sequence (P23975 whole entry): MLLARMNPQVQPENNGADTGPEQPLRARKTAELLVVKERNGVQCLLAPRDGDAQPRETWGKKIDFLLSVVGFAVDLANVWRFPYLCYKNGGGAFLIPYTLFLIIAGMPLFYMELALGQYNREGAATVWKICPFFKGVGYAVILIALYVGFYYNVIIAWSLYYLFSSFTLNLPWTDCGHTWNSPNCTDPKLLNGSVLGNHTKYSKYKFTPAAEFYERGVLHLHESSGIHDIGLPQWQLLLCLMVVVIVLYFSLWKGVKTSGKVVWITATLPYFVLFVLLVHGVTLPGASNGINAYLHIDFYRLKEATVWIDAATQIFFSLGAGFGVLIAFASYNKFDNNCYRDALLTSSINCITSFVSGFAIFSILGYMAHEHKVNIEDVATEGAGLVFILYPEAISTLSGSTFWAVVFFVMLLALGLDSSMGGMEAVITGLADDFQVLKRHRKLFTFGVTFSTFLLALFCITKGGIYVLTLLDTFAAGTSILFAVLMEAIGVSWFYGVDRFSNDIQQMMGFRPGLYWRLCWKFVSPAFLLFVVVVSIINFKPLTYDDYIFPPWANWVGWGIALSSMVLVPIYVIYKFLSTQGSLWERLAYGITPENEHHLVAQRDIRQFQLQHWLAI
T5 sequence (Q01959 whole entry): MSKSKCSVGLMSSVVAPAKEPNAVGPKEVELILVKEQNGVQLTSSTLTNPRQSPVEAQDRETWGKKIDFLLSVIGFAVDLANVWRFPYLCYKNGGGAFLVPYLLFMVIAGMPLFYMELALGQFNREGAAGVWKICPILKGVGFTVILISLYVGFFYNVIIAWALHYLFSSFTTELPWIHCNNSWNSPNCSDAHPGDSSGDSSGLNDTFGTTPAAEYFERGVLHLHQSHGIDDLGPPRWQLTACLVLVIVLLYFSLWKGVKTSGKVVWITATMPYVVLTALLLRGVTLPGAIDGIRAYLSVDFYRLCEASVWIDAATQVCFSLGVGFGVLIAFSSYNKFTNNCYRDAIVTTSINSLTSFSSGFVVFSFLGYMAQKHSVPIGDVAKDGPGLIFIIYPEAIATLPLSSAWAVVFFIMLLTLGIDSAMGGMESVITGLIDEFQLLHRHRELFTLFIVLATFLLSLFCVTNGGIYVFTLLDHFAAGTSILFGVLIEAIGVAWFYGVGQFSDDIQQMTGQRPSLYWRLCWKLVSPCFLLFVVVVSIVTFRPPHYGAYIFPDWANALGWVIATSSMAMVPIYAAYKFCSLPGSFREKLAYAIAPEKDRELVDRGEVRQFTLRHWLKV
Chain of 5-hydroxytryptamine receptor 1D (Homo sapiens) (P28221 whole entry): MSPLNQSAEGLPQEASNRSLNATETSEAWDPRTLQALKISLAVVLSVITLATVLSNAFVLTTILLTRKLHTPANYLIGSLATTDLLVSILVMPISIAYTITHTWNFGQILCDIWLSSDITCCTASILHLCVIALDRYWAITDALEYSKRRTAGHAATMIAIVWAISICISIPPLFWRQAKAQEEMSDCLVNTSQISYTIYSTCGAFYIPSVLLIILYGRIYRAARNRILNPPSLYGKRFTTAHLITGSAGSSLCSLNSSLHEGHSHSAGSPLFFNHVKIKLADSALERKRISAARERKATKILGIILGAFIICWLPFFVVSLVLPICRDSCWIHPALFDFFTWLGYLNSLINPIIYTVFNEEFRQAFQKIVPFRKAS
Chain of Muscarinic acetylcholine receptor M5 (Homo sapiens) (P08912 whole entry): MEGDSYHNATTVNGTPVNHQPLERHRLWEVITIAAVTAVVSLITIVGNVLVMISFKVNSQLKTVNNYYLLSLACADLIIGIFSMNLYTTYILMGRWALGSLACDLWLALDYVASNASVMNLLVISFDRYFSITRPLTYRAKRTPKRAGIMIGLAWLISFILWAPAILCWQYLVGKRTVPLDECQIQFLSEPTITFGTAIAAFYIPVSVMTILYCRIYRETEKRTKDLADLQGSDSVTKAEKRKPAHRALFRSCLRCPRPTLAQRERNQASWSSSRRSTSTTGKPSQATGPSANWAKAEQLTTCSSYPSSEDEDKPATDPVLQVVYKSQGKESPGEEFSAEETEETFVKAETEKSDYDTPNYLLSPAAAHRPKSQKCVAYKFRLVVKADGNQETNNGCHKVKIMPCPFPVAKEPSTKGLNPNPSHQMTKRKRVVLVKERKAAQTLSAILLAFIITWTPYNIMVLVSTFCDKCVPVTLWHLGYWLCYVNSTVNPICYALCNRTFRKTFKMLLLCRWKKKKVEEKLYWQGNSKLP
Chain of 5-hydroxytryptamine receptor 1E (Homo sapiens) (P28566 whole entry): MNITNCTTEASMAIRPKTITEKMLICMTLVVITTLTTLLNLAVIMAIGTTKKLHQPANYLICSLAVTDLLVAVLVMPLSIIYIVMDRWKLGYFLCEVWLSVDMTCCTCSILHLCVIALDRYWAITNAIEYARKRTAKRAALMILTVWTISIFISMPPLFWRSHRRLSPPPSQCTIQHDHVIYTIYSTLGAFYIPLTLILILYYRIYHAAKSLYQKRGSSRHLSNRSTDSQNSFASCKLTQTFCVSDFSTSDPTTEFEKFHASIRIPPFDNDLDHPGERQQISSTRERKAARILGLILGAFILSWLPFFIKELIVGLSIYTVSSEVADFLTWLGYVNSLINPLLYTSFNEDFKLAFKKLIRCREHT
Chain of Histamine H4 receptor (Homo sapiens) (Q9H3N8 whole entry): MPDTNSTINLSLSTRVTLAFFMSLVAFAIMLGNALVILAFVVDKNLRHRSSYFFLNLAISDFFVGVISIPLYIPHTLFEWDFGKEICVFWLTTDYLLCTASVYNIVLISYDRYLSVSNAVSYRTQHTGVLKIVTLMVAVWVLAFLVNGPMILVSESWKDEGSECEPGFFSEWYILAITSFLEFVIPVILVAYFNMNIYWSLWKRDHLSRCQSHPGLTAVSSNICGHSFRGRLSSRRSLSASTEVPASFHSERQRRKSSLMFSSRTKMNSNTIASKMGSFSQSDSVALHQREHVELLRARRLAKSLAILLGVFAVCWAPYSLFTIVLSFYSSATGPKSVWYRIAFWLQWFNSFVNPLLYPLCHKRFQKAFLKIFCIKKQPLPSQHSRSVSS
Chain of 5-hydroxytryptamine receptor 3A (Homo sapiens) (P46098 whole entry): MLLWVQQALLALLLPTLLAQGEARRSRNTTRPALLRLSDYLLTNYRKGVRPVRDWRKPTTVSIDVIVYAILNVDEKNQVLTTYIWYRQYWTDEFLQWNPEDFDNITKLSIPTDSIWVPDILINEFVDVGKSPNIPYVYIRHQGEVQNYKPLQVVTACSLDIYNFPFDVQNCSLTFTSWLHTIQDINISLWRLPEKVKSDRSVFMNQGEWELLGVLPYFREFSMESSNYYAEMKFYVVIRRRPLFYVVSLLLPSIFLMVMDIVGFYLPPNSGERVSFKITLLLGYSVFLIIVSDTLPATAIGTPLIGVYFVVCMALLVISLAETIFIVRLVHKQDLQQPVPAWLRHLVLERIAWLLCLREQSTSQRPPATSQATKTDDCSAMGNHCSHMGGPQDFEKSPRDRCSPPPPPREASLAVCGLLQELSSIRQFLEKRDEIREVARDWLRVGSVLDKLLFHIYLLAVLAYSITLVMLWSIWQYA
Chain of Histamine H1 receptor (Homo sapiens) (P35367 whole entry): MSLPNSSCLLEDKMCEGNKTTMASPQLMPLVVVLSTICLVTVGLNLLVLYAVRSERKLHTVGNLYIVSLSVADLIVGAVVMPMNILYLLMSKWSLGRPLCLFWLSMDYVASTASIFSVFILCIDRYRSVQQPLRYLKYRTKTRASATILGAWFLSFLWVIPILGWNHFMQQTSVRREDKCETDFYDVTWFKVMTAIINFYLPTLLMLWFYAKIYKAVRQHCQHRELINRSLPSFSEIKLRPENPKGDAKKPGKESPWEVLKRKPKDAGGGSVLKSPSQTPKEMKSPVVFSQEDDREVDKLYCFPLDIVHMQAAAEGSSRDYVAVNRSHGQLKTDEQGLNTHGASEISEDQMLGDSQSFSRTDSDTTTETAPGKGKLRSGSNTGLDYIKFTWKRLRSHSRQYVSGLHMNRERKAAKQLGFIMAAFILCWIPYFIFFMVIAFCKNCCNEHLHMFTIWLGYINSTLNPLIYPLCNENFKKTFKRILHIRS

CCCCNC(=O)N1OCC2CSc3ccc(F)cc3C21 (stereo unspecified)
inhibition [1]: 92% | inhibition [2]: 34.9% | Ki [3]: > 10 µM | Ki [4]: 0.489 µM | Ki [5]: > 10 µM

CC(C)(C)NC(=O)N1OCC2COc3ccccc3C21 (stereo unspecified)
inhibition [6]: 12% | inhibition [1]: 43% | inhibition [2]: 25.9% | Ki [3]: > 10 µM | Ki [4]: > 10 µM | Ki [5]: > 10 µM

O=C(Nc1ccccc1)N1OCC2COc3ccccc3C21 (stereo unspecified)
inhibition [6]: 11% | inhibition [1]: 71.6% | inhibition [2]: 56.7% | Ki [3]: > 10 µM | Ki [4]: 1.61 µM | Ki [5]: > 10 µM

O=C(NC1CCCCC1)N1OCC2CSc3ccc(F)cc3C21 (stereo unspecified)
inhibition [6]: 6.2% | inhibition [1]: 102% | inhibition [2]: 30% | Ki [3]: > 10 µM | Ki [4]: 0.042 µM | Ki [5]: > 10 µM | inhibition [7]: 36.9% | inhibition [8]: 1.3% | inhibition [9]: 4.5% | inhibition [10]: -7.8% | inhibition [11]: -8.7% | inhibition [12]: 46.6% | inhibition [13]: 27.1% | inhibition [14]: 37.8% | inhibition [15]: 2.4% | inhibition [16]: 3.7% | inhibition [17]: 7.1% | inhibition [18]: 14% | inhibition [19]: 8.1% | inhibition [20]: 3.2% | inhibition [21]: 12% | inhibition [22]: 66.3% | inhibition [23]: -3.2% | inhibition [24]: -4.3% | inhibition [25]: 30.8% | inhibition [26]: -10% | inhibition [27]: -0.5% | inhibition [28]: 34.6% | inhibition [29]: 23.4% | inhibition [30]: 23.7% | inhibition [31]: 20.6% | inhibition [32]: 44.9% | inhibition [33]: 31.8% | inhibition [34]: 34.1% | inhibition [35]: 20.4% | inhibition [36]: 16.5% | inhibition (Homo sapiens): 1.1% | Ki [37]: > 10 µM | Ki [38]: > 10 µM | Ki [39]: > 10 µM | Efficacy [40]: 0.5% | IC50 [41]: 0.0427 µM | EC50 [42]: > 10 µM | EC50 [43]: 0.000724 µM | EC50 [44]: > 10 µM | EC50 [45]: 0.00398 µM | inhibition [46]: 8.9%

CCCNC(=O)N1OCC2COc3ccccc3C21 (stereo unspecified)
inhibition [6]: 2.4% | inhibition [1]: 53.5% | inhibition [2]: 14.7% | Ki [3]: > 10 µM | Ki [4]: 6.6 µM | Ki [5]: > 10 µM

Cc1ccccc1NC(=O)N1OCC2COc3ccccc3C21 (stereo unspecified)
inhibition [6]: 12.8% | inhibition [1]: 52.2% | inhibition [2]: 40.2% | Ki [3]: > 10 µM | Ki [4]: 4 µM | Ki [5]: > 10 µM

O=C(Nc1ccccc1)N1OCC2CSc3ccc(F)cc3C21 (stereo unspecified)
inhibition [6]: 33.6% | inhibition [1]: 95.3% | inhibition [2]: 61.2% | Ki [3]: > 10 µM | Ki [4]: 0.223 µM | Ki [5]: 5.17 µM

CCCNC(=O)N1OCC2CSc3ccc(F)cc3C21 (stereo unspecified)
inhibition [1]: 93% | inhibition [2]: 37.4% | Ki [3]: > 10 µM | Ki [4]: 0.384 µM | Ki [5]: > 10 µM

CC(C)NC(=O)N1OCC2CSc3ccc(F)cc3C21 (stereo unspecified)
inhibition [6]: 2.2% | inhibition [1]: 89.3% | inhibition [2]: 55.4% | Ki [3]: > 10 µM | Ki [4]: 0.569 µM | Ki [5]: > 10 µM

CCCCNC(=O)N1OCC2COc3ccccc3C21 (stereo unspecified)
inhibition [6]: 0.8% | inhibition [1]: 35.4% | inhibition [2]: 23.4% | Ki [3]: > 10 µM | Ki [4]: > 10 µM | Ki [5]: > 10 µM

CC(C)NC(=O)N1OCC2COc3ccccc3C21 (stereo unspecified)
inhibition [6]: -0.2% | inhibition [1]: 14.8% | inhibition [2]: 28.9% | Ki [3]: > 10 µM | Ki [4]: > 10 µM | Ki [5]: > 10 µM

O=C(NC1CCCCC1)N1OCC2COc3ccccc3C21 (stereo unspecified)
inhibition [6]: 5.5% | inhibition [1]: 75.5% | inhibition [2]: 28.1% | Ki [3]: > 10 µM | Ki [4]: 1.77 µM | Ki [5]: > 10 µM
